This note sets out measurements from ChEMBL document CHEMBL3045406, “Enantioselective Relieving Activity of α-Methylbenzylphenylureas toward Bensulfuron-methyl Injury to Rice (Oryza sativa)” (Biosci Biotechnol Biochem, 1999).

The first data set relates to Oryza sativa. Briefly: Effect on Oryza sativa (rice) assessed as growth rate at 1 uM relative to control. It is filed as organism-based. The note with it: in vivo.
On to `CCCCc1ccc(NC(=O)N[C@@H](C)c2ccccc2)cc1`, for which the Activity came out at 72%.

With `C[C@@H](NC(=O)Nc1ccccc1C(F)(F)F)c1ccccc1`, the Activity stood at 95%.

`C[C@H](NC(=O)Nc1ccc(Cl)cc1Cl)c1ccccc1`: the Activity came to 100%.

Take `CCCc1ccc(NC(=O)N[C@H](C)c2ccccc2)cc1`: the Activity is given as 31%.

With `C[C@@H](NC(=O)Nc1ccccc1)c1ccccc1`, the Activity is 98%.

In the case of `CC(C)c1ccccc1NC(=O)N[C@H](C)c1ccccc1`, the Activity turned out to be 101%.

Consider `C[C@H](NC(=O)Nc1ccc(F)c(F)c1)c1ccccc1`, for which the Activity is recorded as 100%.

With `CCCCCCc1ccc(NC(=O)N[C@H](C)c2ccccc2)cc1`, the Activity is 101%.

Consider `C[C@@H](NC(=O)Nc1ccc(F)cc1)c1ccccc1`, for which the Activity stood at 96%.

Consider `C[C@H](NC(=O)Nc1cccc(Br)c1)c1ccccc1`, for which the Activity turned out to be 100%.

In another data set the test system is Oryza sativa. Briefly: Relieving activity against bensulfuron-methyl induced injury to Oryza sativa (rice) assessed as growth rate at 1 uM (Rbv = 46 to 53%). It is filed as functional.
Details: not given
Take `CCCCc1ccc(NC(=O)N[C@@H](C)c2ccccc2)cc1`: the Activity is on record as 68%.

For `C[C@@H](NC(=O)Nc1ccccc1C(F)(F)F)c1ccccc1`, the Activity was 54%.

On to `C[C@H](NC(=O)Nc1ccc(Cl)cc1Cl)c1ccccc1`, for which the Activity turned out to be 80%.

As to `CCCc1ccc(NC(=O)N[C@H](C)c2ccccc2)cc1`, the Activity was 33%.

With `C[C@@H](NC(=O)Nc1ccccc1)c1ccccc1`, the Activity was found to be 69%.

Take `CC(C)c1ccccc1NC(=O)N[C@H](C)c1ccccc1`: the Activity stood at 48%.

Regarding `C[C@H](NC(=O)Nc1ccc(F)c(F)c1)c1ccccc1`, the Activity came out at 70%.

With `CCCCCCc1ccc(NC(=O)N[C@H](C)c2ccccc2)cc1`, the Activity was determined as 54%.

For the molecule `C[C@@H](NC(=O)Nc1ccc(F)cc1)c1ccccc1`, the Activity came out at 55%.

On to `C[C@H](NC(=O)Nc1cccc(Br)c1)c1ccccc1`, for which the Activity stood at 80%.

The next data set relates to Oryza sativa. Briefly: Safener indices, ratio of compound effect of Oryza sativa (rice) growth rate to relieving activity against bensulfuron-methyl induced injury to Oryza sativa growth rate at 10 uM.
Details: not given
As to `CCCCc1ccc(NC(=O)N[C@@H](C)c2ccccc2)cc1`, the Ratio was 37.

`C[C@@H](NC(=O)Nc1ccccc1C(F)(F)F)c1ccccc1`: the Ratio was determined as 42.

As to `C[C@H](NC(=O)Nc1ccc(Cl)cc1Cl)c1ccccc1`, the Ratio came to 73.

With `CCCc1ccc(NC(=O)N[C@H](C)c2ccccc2)cc1`, the Ratio is on record as 24.

`C[C@@H](NC(=O)Nc1ccccc1)c1ccccc1`: the Ratio was found to be 60.

`CC(C)c1ccccc1NC(=O)N[C@H](C)c1ccccc1`: the Ratio is given as 24.

Turning to `C[C@H](NC(=O)Nc1ccc(F)c(F)c1)c1ccccc1`, the Ratio was 64.

Take `CCCCCCc1ccc(NC(=O)N[C@H](C)c2ccccc2)cc1`: the Ratio is 22.

For the molecule `C[C@@H](NC(=O)Nc1ccc(F)cc1)c1ccccc1`, the Ratio worked out at 52.

With `C[C@H](NC(=O)Nc1cccc(Br)c1)c1ccccc1`, the Ratio amounted to 85.

For the next data set, the system named is Oryza sativa. Briefly: Effect on Oryza sativa (rice) assessed as growth rate at 0.1 uM relative to control. Format: organism-based. The note with it: in vivo.
With `CCCCc1ccc(NC(=O)N[C@@H](C)c2ccccc2)cc1`, the Activity worked out at 98%.

`C[C@@H](NC(=O)Nc1ccccc1C(F)(F)F)c1ccccc1`: the Activity is reported as 99%.

With `C[C@H](NC(=O)Nc1ccc(Cl)cc1Cl)c1ccccc1`, the Activity was found to be 100%.

On to `CCCc1ccc(NC(=O)N[C@H](C)c2ccccc2)cc1`, for which the Activity is given as 33%.

With `C[C@@H](NC(=O)Nc1ccccc1)c1ccccc1`, the Activity came to 101%.

As for `CC(C)c1ccccc1NC(=O)N[C@H](C)c1ccccc1`, the Activity stood at 103%.

For `C[C@H](NC(=O)Nc1ccc(F)c(F)c1)c1ccccc1`, the Activity stood at 99%.

As for `CCCCCCc1ccc(NC(=O)N[C@H](C)c2ccccc2)cc1`, the Activity amounted to 100%.

For `C[C@@H](NC(=O)Nc1ccc(F)cc1)c1ccccc1`, the Activity is 98%.

For the molecule `C[C@H](NC(=O)Nc1cccc(Br)c1)c1ccccc1`, the Activity is 100%.

A further data set relates to Oryza sativa. Briefly: Relieving activity against bensulfuron-methyl induced injury to Oryza sativa (rice) assessed as growth rate at 10 uM (Rbv = 46 to 53%). It is filed as functional.
Details: not given
As to `CCCCc1ccc(NC(=O)N[C@@H](C)c2ccccc2)cc1`, the Activity came out at 56%.

`C[C@@H](NC(=O)Nc1ccccc1C(F)(F)F)c1ccccc1`: the Activity is listed as 58%.

With `C[C@H](NC(=O)Nc1ccc(Cl)cc1Cl)c1ccccc1`, the Activity is reported as 87%.

On to `CCCc1ccc(NC(=O)N[C@H](C)c2ccccc2)cc1`, for which the Activity is 38%.

Consider `C[C@@H](NC(=O)Nc1ccccc1)c1ccccc1`, for which the Activity is 77%.

On to `CC(C)c1ccccc1NC(=O)N[C@H](C)c1ccccc1`, for which the Activity worked out at 30%.

In the case of `C[C@H](NC(=O)Nc1ccc(F)c(F)c1)c1ccccc1`, the Activity came to 82%.

In the case of `CCCCCCc1ccc(NC(=O)N[C@H](C)c2ccccc2)cc1`, the Activity came out at 61%.

In the case of `C[C@@H](NC(=O)Nc1ccc(F)cc1)c1ccccc1`, the Activity amounted to 73%.

As to `C[C@H](NC(=O)Nc1cccc(Br)c1)c1ccccc1`, the Activity is listed as 92%.

The test system of the next data set is Oryza sativa. As to the kind of experiment: Relieving activity against bensulfuron-methyl induced injury to Oryza sativa (rice) assessed as growth rate at 0.1 uM (Rbv = 46 to 53%). Format: functional.
Details: not given
For `CCCCc1ccc(NC(=O)N[C@@H](C)c2ccccc2)cc1`, the Activity came to 60%.

With `C[C@@H](NC(=O)Nc1ccccc1C(F)(F)F)c1ccccc1`, the Activity was found to be 55%.

With `C[C@H](NC(=O)Nc1ccc(Cl)cc1Cl)c1ccccc1`, the Activity was 68%.

On to `CCCc1ccc(NC(=O)N[C@H](C)c2ccccc2)cc1`, for which the Activity turned out to be 32%.

`C[C@@H](NC(=O)Nc1ccccc1)c1ccccc1`: the Activity came out at 56%.

Take `CC(C)c1ccccc1NC(=O)N[C@H](C)c1ccccc1`: the Activity worked out at 43%.

As for `C[C@H](NC(=O)Nc1ccc(F)c(F)c1)c1ccccc1`, the Activity is listed as 57%.

Take `CCCCCCc1ccc(NC(=O)N[C@H](C)c2ccccc2)cc1`: the Activity came to 52%.

For `C[C@@H](NC(=O)Nc1ccc(F)cc1)c1ccccc1`, the Activity is 47%.

With `C[C@H](NC(=O)Nc1cccc(Br)c1)c1ccccc1`, the Activity worked out at 66%.

System in another data set: not listed separately
As to the kind of experiment: Hydrophobicity, log K of the compound. It is filed as physicochemical. The note with it: octanol/water.
For the molecule `CCCCc1ccc(NC(=O)N[C@@H](C)c2ccccc2)cc1`, the “log K” value was found to be 0.76.

Turning to `C[C@@H](NC(=O)Nc1ccccc1C(F)(F)F)c1ccccc1`, the “log K” value is reported as 0.456.

Take `C[C@H](NC(=O)Nc1ccc(Cl)cc1Cl)c1ccccc1`: the “log K” value was determined as 0.688.

As for `CCCc1ccc(NC(=O)N[C@H](C)c2ccccc2)cc1`, the “log K” value was determined as 0.602.

Consider `C[C@@H](NC(=O)Nc1ccccc1)c1ccccc1`, for which the “log K” value is reported as 0.28.

In the case of `CC(C)c1ccccc1NC(=O)N[C@H](C)c1ccccc1`, the “log K” value is 0.487.

Take `C[C@H](NC(=O)Nc1ccc(F)c(F)c1)c1ccccc1`: the “log K” value came to 0.398.

With `CCCCCCc1ccc(NC(=O)N[C@H](C)c2ccccc2)cc1`, the “log K” value came out at 1.081.

With `C[C@@H](NC(=O)Nc1ccc(F)cc1)c1ccccc1`, the “log K” value turned out to be 0.307.

For `C[C@H](NC(=O)Nc1cccc(Br)c1)c1ccccc1`, the “log K” value is recorded as 0.512.

For another data set, the system named is Oryza sativa. Briefly: Safener indices, ratio of compound effect of Oryza sativa (rice) growth rate to relieving activity against bensulfuron-methyl induced injury to Oryza sativa growth rate at 0.1 uM.
Details: not given
As to `CCCCc1ccc(NC(=O)N[C@@H](C)c2ccccc2)cc1`, the Ratio is 21.

`C[C@@H](NC(=O)Nc1ccccc1C(F)(F)F)c1ccccc1`: the Ratio was determined as 10.

`C[C@H](NC(=O)Nc1ccc(Cl)cc1Cl)c1ccccc1`: the Ratio was 33.

With `CCCc1ccc(NC(=O)N[C@H](C)c2ccccc2)cc1`, the Ratio came to 18.

As to `C[C@@H](NC(=O)Nc1ccccc1)c1ccccc1`, the Ratio stood at 7.

As for `CC(C)c1ccccc1NC(=O)N[C@H](C)c1ccccc1`, the Ratio is -9.

As to `C[C@H](NC(=O)Nc1ccc(F)c(F)c1)c1ccccc1`, the Ratio is on record as 14.

Consider `CCCCCCc1ccc(NC(=O)N[C@H](C)c2ccccc2)cc1`, for which the Ratio turned out to be 6.

`C[C@@H](NC(=O)Nc1ccc(F)cc1)c1ccccc1`: the Ratio is -3.

`C[C@H](NC(=O)Nc1cccc(Br)c1)c1ccccc1`: the Ratio was 31.

Another data set has as its system Oryza sativa. Briefly: Safener indices, ratio of compound effect of Oryza sativa (rice) growth rate to relieving activity against bensulfuron-methyl induced injury to Oryza sativa growth rate at 1 uM.
Details: not given
On to `CCCCc1ccc(NC(=O)N[C@@H](C)c2ccccc2)cc1`, for which the Ratio turned out to be 50.

For `C[C@@H](NC(=O)Nc1ccccc1C(F)(F)F)c1ccccc1`, the Ratio was 11.

As to `C[C@H](NC(=O)Nc1ccc(Cl)cc1Cl)c1ccccc1`, the Ratio amounted to 59.

Regarding `CCCc1ccc(NC(=O)N[C@H](C)c2ccccc2)cc1`, the Ratio came to 20.

With `C[C@@H](NC(=O)Nc1ccccc1)c1ccccc1`, the Ratio worked out at 36.

In the case of `CC(C)c1ccccc1NC(=O)N[C@H](C)c1ccccc1`, the Ratio is on record as 3.

Turning to `C[C@H](NC(=O)Nc1ccc(F)c(F)c1)c1ccccc1`, the Ratio came out at 41.

As for `CCCCCCc1ccc(NC(=O)N[C@H](C)c2ccccc2)cc1`, the Ratio worked out at 9.

On to `C[C@@H](NC(=O)Nc1ccc(F)cc1)c1ccccc1`, for which the Ratio was determined as 16.

As to `C[C@H](NC(=O)Nc1cccc(Br)c1)c1ccccc1`, the Ratio was 59.

Another data set has as its system Oryza sativa. Briefly: Effect on Oryza sativa (rice) assessed as growth rate at 10 uM relative to control. Format: organism-based. The note with it: in vivo.
On to `CCCCc1ccc(NC(=O)N[C@@H](C)c2ccccc2)cc1`, for which the Activity is 60%.

With `C[C@@H](NC(=O)Nc1ccccc1C(F)(F)F)c1ccccc1`, the Activity turned out to be 54%.

Take `C[C@H](NC(=O)Nc1ccc(Cl)cc1Cl)c1ccccc1`: the Activity was 99%.

`CCCc1ccc(NC(=O)N[C@H](C)c2ccccc2)cc1`: the Activity was found to be 35%.

Consider `C[C@@H](NC(=O)Nc1ccccc1)c1ccccc1`, for which the Activity is 79%.

Consider `CC(C)c1ccccc1NC(=O)N[C@H](C)c1ccccc1`, for which the Activity came out at 17%.

On to `C[C@H](NC(=O)Nc1ccc(F)c(F)c1)c1ccccc1`, for which the Activity amounted to 98%.

Regarding `CCCCCCc1ccc(NC(=O)N[C@H](C)c2ccccc2)cc1`, the Activity was 101%.

With `C[C@@H](NC(=O)Nc1ccc(F)cc1)c1ccccc1`, the Activity is 92%.

As to `C[C@H](NC(=O)Nc1cccc(Br)c1)c1ccccc1`, the Activity turned out to be 99%.
